According to patent publication US6737383B1, “Herbicidal oxadiazolidines” (priority 1999, dated 2004):

Assays:
corn = assay: Test B pre/postemergence corn; assay type: in vivo, Zea mays
How it was run: (§1)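 Herbicidal effect was estimated by eye on a ten-point control scale after plants spent twelve to sixteen days in a greenhouse following soil or foliar treatment. Foliar sprays targeted plants at one to four leaves; all doses were formulated in a non-phytotoxic solvent with surfactant.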

rice = assay: Test B flood test rice; assay type: in vivo, Oryza sativa
How it was run: (§2)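 Flood test on plants grown to the 2-leaf stage; treated plants kept in greenhouse twelve to sixteen days, then visually rated against controls on a 0 (no effect) to 10 (complete control) scale.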

velvetleaf = assay: Test B pre/postemergence velvetleaf; assay type: in vivo, Abutilon theophrasti; conditions: for Plant response rating, Velvetleaf: Rate 250 g/ha
How it was run: as §1

soybean = assay: Test B pre/postemergence soybean; assay type: in vivo, Glycine max
How it was run: as §1

duck salad = assay: Test B flood test duck salad; assay type: in vivo, Heteranthera limosa
How it was run: as §2

blackgrass = assay: Test B pre/postemergence blackgrass; assay type: in vivo, Alopecurus myosuroides
How it was run: as §1

smallflower flatsedge = assay: Test B flood test smallflower flatsedge; assay type: in vivo, Cyperus difformis
How it was run: as §2

wild oat = assay: Test B pre/postemergence wild oat; assay type: in vivo, Avena fatua; conditions: for Plant response rating, Wild oats: Rate 250 g/ha
How it was run: as §1

surinam grass = assay: Test B pre/postemergence surinam grass; assay type: in vivo, Brachiaria decumbens
How it was run: as §1

rape = assay: Test B pre/postemergence rape; assay type: in vivo, Brassica napus
How it was run: as §1

purple nutsedge = assay: Test B pre/postemergence purple nutsedge; assay type: in vivo, Cyperus rotundus
How it was run: as §1

pigweed = assay: Test B pre/postemergence pigweed; assay type: in vivo, Amaranthus retroflexus
How it was run: as §1

wheat = assay: Test B pre/postemergence wheat; assay type: in vivo, Triticum aestivum; conditions: for Plant response rating, Wheat: Rate 250 g/ha
How it was run: as §1

crabgrass = assay: Test B pre/postemergence crabgrass; assay type: in vivo, Digitaria sanguinalis
How it was run: as §1

sugar beet = assay: Test B pre/postemergence sugar beet; assay type: in vivo, Beta vulgaris; conditions: for Plant response rating, Sugarbeets: Rate 250 g/ha
How it was run: as §1

bedstraw = assay: Test B pre/postemergence bedstraw; assay type: in vivo, Galium aparine
How it was run: as §1

[1] = Postemergence, Rate 125 g/ha, scale of 0 to 10 where 0 is no effect and 10 is complete control
[2] = Postemergence, Rate 250 g/ha, scale 0 to 10, 0 no effect, 10 complete control
[3] = Preemergence, Rate 62 g/ha, scale 0 to 10 (0 no effect, 10 complete control)
[4] = Preemergence, Rate 125 g/ha, scale 0 to 10 (0 no effect, 10 complete control)
[5] = Preemergence, Rate 250 g/ha, scale of 0 to 10 where 0 is no effect and 10 is complete control
[6] = Rate 62 g/ha, Postemergence, scale of 0 to 10 where 0 is no effect and 10 is complete control
[7] = Rate 500 g/ha, Postemergence, scale 0 to 10, 0 no effect, 10 complete control
[8] = Postemergence (flood test species), Rate 125 g/ha, scale of 0 to 10 where 0 is no effect and 10 is complete control
[9] = Rate 62 g/ha, Postemergence section, flood test species, scale of 0 to 10 where 0 is no effect and 10 is complete control
[10] = Rate 250 g/ha, Postemergence (flood test), scale 0 to 10, 0 is no effect, 10 is complete control
[11] = Rate 500 g/ha, listed under Postemergence (flood test species), scale 0 to 10, 0 no effect, 10 complete control
[12] = Preemergence, Rate 125 g/ha, 0 is no effect, 10 is complete control
[13] = Preemergence, scale of 0 to 10 where 0 is no effect and 10 is complete control
[14] = Postemergence, scale 0 to 10, 0 is no effect, 10 is complete control
[15] = Rate 250 g/ha, Postemergence, scale 0 to 10, 0 is no effect, 10 is complete control
[16] = Postemergence, Rate 62 g/ha, scale 0 to 10, 0 is no effect, 10 is complete control
[17] = Rate 125 g/ha, Postemergence, scale 0 to 10, 0 no effect, 10 complete control

CCc1noc(CC)c1-n1c(=O)on(C(=O)N(c2ccc(F)cc2)C(C)C)c1=O [Compound 102]
3: Velvetleaf plant response rating (velvetleaf; [7]) | Bedstraw plant response rating (bedstraw; [7])
0: Corn plant response rating (corn; [1]) | Corn plant response rating (corn; [2]) | Corn plant response rating (corn; [3]) | Plant response rating, Corn (corn; [4]) | Plant response rating, Corn (corn; [5]) | Corn plant response rating (corn; [6]) | Rice plant response rating (rice; [8]) | Rice plant response rating (rice; [9]) | Plant response rating, Rice (rice; [10]) | Rice plant response rating (rice; [11]) | Velvetleaf plant response rating (velvetleaf; [1]) | Velvetleaf plant response rating (velvetleaf; [3]) | Velvetleaf plant response rating (0 to 10 scale) (velvetleaf; [12]) | Plant response rating, Velvetleaf (velvetleaf; [13]) | Velvetleaf plant response rating (velvetleaf; [6]) | Plant response rating, Velvetleaf (velvetleaf; [14]) | Soybean plant response rating (soybean; [1]) | Soybean plant response rating (soybean; [3]) | Plant response rating, Soybean (soybean; [4]) | Plant response rating, Soybean (soybean; [5]) | Soybean plant response rating (soybean; [6]) | Plant response rating, Soybean (soybean; [15]) | Soybean plant response rating (soybean; [7]) | Ducksalad plant response rating (duck salad; [8]) | Ducksalad plant response rating (duck salad; [9]) | Ducksalad plant response rating (duck salad; [11]) | Ducksalad plant response rating (duck salad; flood test, listed under Postemergence, Rate 250 g/ha, scale 0 to 10, 0 no effect, 10 complete control) | Blackgrass plant response rating (blackgrass; [1]) | Blackgrass plant response rating (blackgrass; [2]) | Blackgrass plant response rating (blackgrass; [3]) | Plant response rating, Blackgrass (blackgrass; [4]) | Blackgrass plant response rating (blackgrass; [6]) | Blackgrass plant response rating (blackgrass; [7]) | S. Flatsedge plant response rating (smallflower flatsedge; [8]) | S. Flatsedge plant response rating (smallflower flatsedge; [9]) | Plant response rating, S. Flatsedge (smallflower flatsedge; [10]) | S. Flatsedge plant response rating (smallflower flatsedge; [11]) | Wild oats plant response rating (wild oat; [1]) | Wild oats plant response rating (wild oat; [3]) | Wild oats plant response rating (0 to 10 scale) (wild oat; [12]) | Plant response rating, Wild oats (wild oat; [13]) | Wild oats plant response rating (wild oat; [6]) | Plant response rating, Wild oats (wild oat; [14]) | Wild oats plant response rating (wild oat; [7]) | B. signalgrass plant response rating (surinam grass; [16]) | B. signalgrass plant response rating (surinam grass; [2]) | B. signalgrass plant response rating (surinam grass; [3]) | Plant response rating, B. signalgrass (surinam grass; [4]) | Plant response rating, B. signalgrass (surinam grass; [5]) | B. signalgrass plant response rating (surinam grass; [17]) | B. signalgrass plant response rating (surinam grass; Rate 500 g/ha, Postemergence, scale of 0 to 10 where 0 is no effect and 10 is complete control) | Rape plant response rating (rape; [1]) | Rape plant response rating (rape; [2]) | Rape plant response rating (rape; [3]) | Plant response rating, Rape (rape; [4]) | Plant response rating, Rape (rape; [5]) | Rape plant response rating (rape; [6]) | Rape plant response rating (rape; [7]) | Nutsedge plant response rating (purple nutsedge; [1]) | Nutsedge plant response rating (purple nutsedge; [2]) | Nutsedge plant response rating (purple nutsedge; [3]) | Plant response rating, Nutsedge (purple nutsedge; [4]) | Plant response rating, Nutsedge (purple nutsedge; [5]) | Nutsedge plant response rating (purple nutsedge; [6]) | Nutsedge plant response rating (purple nutsedge; [7]) | Redroot pigweed plant response rating (pigweed; [1]) | Redroot pigweed plant response rating (pigweed; [3]) | Plant response rating, Redroot pigweed (pigweed; [4]) | Plant response rating, Redroot pigweed (pigweed; [5]) | Redroot pigweed plant response rating (pigweed; [6]) | Plant response rating, Redroot pigweed (pigweed; [15]) | Redroot pigweed plant response rating (pigweed; [7]) | Wheat plant response rating (wheat; [1]) | Wheat plant response rating (wheat; [3]) | Wheat plant response rating (0 to 10 scale) (wheat; [12]) | Plant response rating, Wheat (wheat; [13]) | Wheat plant response rating (wheat; [6]) | Plant response rating, Wheat (wheat; [14]) | Wheat plant response rating (wheat; [7]) | Crabgrass plant response rating (crabgrass; [1]) | Crabgrass plant response rating (crabgrass; [2]) | Crabgrass plant response rating (crabgrass; [3]) | Plant response rating, Crabgrass (crabgrass; [4]) | Plant response rating, Crabgrass (crabgrass; [5]) | Crabgrass plant response rating (crabgrass; [6]) | Sugarbeets plant response rating (sugar beet; [1]) | Sugarbeets plant response rating (sugar beet; [3]) | Sugarbeets plant response rating (0 to 10 scale) (sugar beet; [12]) | Plant response rating, Sugarbeets (sugar beet; [13]) | Sugarbeets plant response rating (sugar beet; [6]) | Plant response rating, Sugarbeets (sugar beet; [14]) | Sugarbeets plant response rating (sugar beet; [7]) | Bedstraw plant response rating (bedstraw; [16]) | Bedstraw plant response rating (bedstraw; [2]) | Bedstraw plant response rating (bedstraw; [3]) | Plant response rating, Bedstraw (bedstraw; [4]) | Plant response rating, Bedstraw (bedstraw; [5]) | Bedstraw plant response rating (bedstraw; [17])
2: Corn plant response rating (corn; [7]) | Plant response rating, Blackgrass (blackgrass; [5])
5: Crabgrass plant response rating (crabgrass; [7])
